# What was measured:
# CDK7/CycH/MNAT1 = target: T1, CDK7/CycH/MNAT1 (Homo sapiens, UniProt P50613); assay: Binding assay (FRET, LanthaScreen Eu, Tracer236) for CDK7; conditions: read-out: CDK7 IC50 (enzyme binding assay)
# T1 construct: His; purchased Invitrogen PR6749B
# Experimental: (§1) Inhibition activity of compound to CDK7 kinase was tested in a binding assay which was applied to the FRET (fluorescence resonance energy transfer) principle from the europium (Eu) donor fluorophore to the acceptor fluorophore on the kinase tracer. Test compounds were made to 1.125 mM of compound solution, and then this compound solution 4-fold serial diluted in 8 steps using an automated liquid handler (JANUS™, PerkinElmer). 80 nL/well of each diluted compound solution was added into the 384-well plate (Greiner, Cat #784075) first and 7.5 ul/well of working solution [5 nM of CDK7/CycH/MNAT1 (Invitrogen, Cat #PR6749B), 4 nM of Biotin anti-His Tag Antibody (Invitrogen, Cat #PV6090), and LanthaScreen® Eu-Streptavidin (Invitrogen, Cat #PV6025)] was added. After mixing the solution well, the same volume with the working solution of Tracer236 (Invitrogen, Cat #PV5592) was added into each well in the plate. The plate was incubated for 60 minutes at room temperature and then all the fluorescence were measured using Envision leader (Perkin Elmer, USA) [Laser as excitation light; […] as the first and the second emission filter]. Data was analysed using XL Fit software.
# (§2) All of the synthesized compounds were screened in the above-mentioned assay procedure. To identify the inhibition activity of compounds for other CDKs including CDK1 (Invitrogen, Cat #PR4768C), CDK2 (Invitrogen, Cat #PR4448B) and CDK5 (Invitrogen, Cat #PR8543B) were tested using the same protocol under reasonable concentration of Tracer236 and kinases for each assay. The formula for the assay buffer summarized in below table.
# CDK2 = target: T2, CDK2 (Homo sapiens, UniProt P24941); assay: Binding assay (FRET, LanthaScreen Eu, Tracer236) for CDK2; conditions: for IC50: read-out: CDK2 IC50 (enzyme binding assay)
# T2 construct: His; purchased Invitrogen PR4448B
# Experimental: as §1, §2
# CDK5 = target: T3, CDK5 (Homo sapiens, UniProt Q00535); assay: Binding assay (FRET, LanthaScreen Eu, Tracer236) for CDK5; conditions: for IC50: read-out: CDK5 IC50 (enzyme binding assay)
# T3 construct: His; purchased Invitrogen PR8543B
# Experimental: as §1, §2
# CDK1 = target: T4, CDK1 (Homo sapiens, UniProt P06493); assay: Binding assay (FRET, LanthaScreen Eu, Tracer236) for CDK1; conditions: for IC50: read-out: CDK1 IC50 (enzyme binding assay)
# T4 construct: His; purchased Invitrogen PR4768C
# Experimental: as §1, §2
# CDK7 protein = target: T5, CDK7 protein (Homo sapiens, UniProt P50613); assay: Western blot assay for CDK7 protein degradation in A2780 cells; assay type: cell-based; conditions: 24 hours; for DC50: read-out: Compound concentration that caused 50% CDK7 protein degradation in A2780 cells (DC50);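 as to all read-outs here: A is DC50 up to 100 nM B is 100 to 1000 nM C is above 1000 nM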
# T5 construct: To verify endogenous CDK7 protein degradation; endogenous in cells; host or cells: A2780 (ECACC 93112519)
# Experimental: Human ovarian cancer cell line, A2780 (Cat #93112519) was obtained from ECACC. Cells were grown in RPMI-1640 media (Invitrogen, Cat #22400105) supplemented with 10% FBS (Hyclone, Cat #SH30084.03) and 1% penicillin/streptomycin (Hyclone, Cat #SV30010) and cultured at 37° C., 5% Co2 in a humidified chamber. All cell lines were routinely tested for mycoplasma.
# To verify endogenous CDK7 protein degradation upon treatment of CDK7-specific degrader, the western blot assay was conducted a 24 hours' time period. 6×10^5 cells/well of A2780 cells were plated in 6-well plate. After 24 hours, the cells were treated with various concentrations of the compound corresponding range. DMSO solvent without compound served as a control and final DMSO concentration was not to exceed 0.1% of total volume. After 24 hours of incubation at 37° C., 5% Co2 incubator, cells were collected and lysed with 60 ul of lysis buffer. Collected lysates were incubated for 30 min on ice and collect supernatant through centrifugation at 12,000 rpm for 10 min at 4° C. The protein in lysates were quantified with BCA protein quantification kit (Pierce, Cat #23227) following manufacture's protocol. Cell lysates were diluted into 1 ug/ul of concentration with lysis buffer. 20 ug of protein was loaded to each well of 4˜12% Bis-Tris gel (Invitrogen, Cat #NP0336BOX) with MOPS running buffer (Invitrogen, Cat #NP0001). The proteins were transferred from gel to membrane and incubated with primary antibody as followed at 4° C. overnight; CDK7 (CST, Cat #2090S) and β-actin (Santa Cruz, Cat #sc-47778) 1:20,000. The signals were developed and acquired with ImageQuant™ LAS 4000.
# T3 sequence (Q00535 whole entry): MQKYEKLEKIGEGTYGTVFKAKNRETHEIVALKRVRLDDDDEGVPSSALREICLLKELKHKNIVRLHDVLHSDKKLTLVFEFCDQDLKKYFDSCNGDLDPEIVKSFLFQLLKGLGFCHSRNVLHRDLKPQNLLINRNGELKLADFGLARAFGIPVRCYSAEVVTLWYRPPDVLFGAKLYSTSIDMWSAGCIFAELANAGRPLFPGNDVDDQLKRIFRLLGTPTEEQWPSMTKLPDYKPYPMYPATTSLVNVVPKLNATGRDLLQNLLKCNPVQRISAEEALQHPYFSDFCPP
# T3 sequence (Q15078 99-307 partner limits assumed): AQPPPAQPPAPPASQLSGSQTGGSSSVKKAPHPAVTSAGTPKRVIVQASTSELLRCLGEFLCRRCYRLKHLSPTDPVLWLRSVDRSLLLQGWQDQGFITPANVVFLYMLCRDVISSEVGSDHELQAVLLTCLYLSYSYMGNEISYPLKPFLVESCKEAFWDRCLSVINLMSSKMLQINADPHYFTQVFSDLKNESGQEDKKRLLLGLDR
# T4 sequence (P06493 whole entry): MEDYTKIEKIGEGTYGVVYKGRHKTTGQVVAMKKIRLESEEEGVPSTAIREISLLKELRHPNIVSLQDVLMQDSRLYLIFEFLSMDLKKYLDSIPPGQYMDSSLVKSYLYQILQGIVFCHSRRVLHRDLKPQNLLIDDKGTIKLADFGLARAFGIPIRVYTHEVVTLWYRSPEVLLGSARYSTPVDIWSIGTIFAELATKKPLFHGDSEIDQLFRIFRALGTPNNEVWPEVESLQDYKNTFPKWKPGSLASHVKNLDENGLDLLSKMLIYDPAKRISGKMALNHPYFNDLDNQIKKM
# T4 sequence (P14635 whole entry partner): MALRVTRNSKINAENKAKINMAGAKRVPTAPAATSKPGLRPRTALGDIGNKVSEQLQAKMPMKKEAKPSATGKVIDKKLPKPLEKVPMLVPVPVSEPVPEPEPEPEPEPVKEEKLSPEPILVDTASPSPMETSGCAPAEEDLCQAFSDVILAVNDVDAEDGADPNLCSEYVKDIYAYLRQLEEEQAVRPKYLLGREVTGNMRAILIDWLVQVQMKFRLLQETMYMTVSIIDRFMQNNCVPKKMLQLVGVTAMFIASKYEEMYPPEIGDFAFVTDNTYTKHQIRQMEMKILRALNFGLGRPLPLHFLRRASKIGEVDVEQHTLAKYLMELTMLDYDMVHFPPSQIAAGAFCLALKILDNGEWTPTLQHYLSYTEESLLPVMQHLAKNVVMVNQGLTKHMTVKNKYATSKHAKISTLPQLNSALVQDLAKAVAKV
# T5 sequence (P50613 whole entry): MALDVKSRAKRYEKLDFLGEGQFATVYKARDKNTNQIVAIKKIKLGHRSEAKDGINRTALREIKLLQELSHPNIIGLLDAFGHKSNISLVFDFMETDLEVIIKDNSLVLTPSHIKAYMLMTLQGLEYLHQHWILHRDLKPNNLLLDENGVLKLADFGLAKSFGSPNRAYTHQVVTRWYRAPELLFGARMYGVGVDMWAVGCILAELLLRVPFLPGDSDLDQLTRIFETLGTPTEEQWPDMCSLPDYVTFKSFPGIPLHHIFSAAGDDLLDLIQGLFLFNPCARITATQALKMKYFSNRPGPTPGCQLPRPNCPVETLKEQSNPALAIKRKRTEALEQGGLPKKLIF
# T1 sequence (P50613 whole entry): as above
# T1 sequence (P51946 whole entry partner): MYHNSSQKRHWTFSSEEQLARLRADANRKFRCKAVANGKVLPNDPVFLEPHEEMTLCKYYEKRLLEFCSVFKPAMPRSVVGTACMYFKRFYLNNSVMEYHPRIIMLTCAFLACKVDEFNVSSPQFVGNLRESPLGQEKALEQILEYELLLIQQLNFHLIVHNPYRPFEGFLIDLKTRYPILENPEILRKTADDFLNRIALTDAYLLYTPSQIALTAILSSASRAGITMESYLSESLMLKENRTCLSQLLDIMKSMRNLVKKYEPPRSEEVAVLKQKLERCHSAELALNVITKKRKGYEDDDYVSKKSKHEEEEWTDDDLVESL
# T1 sequence (P51948 whole entry partner): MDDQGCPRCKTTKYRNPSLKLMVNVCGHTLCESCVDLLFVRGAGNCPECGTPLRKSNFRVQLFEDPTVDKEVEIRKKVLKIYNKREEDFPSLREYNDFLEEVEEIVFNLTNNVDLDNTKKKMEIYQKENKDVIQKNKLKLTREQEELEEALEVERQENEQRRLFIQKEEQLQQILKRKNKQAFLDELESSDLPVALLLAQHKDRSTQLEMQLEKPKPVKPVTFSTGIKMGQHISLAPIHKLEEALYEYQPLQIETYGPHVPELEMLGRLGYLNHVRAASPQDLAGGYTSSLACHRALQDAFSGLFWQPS
IC50 (CDK7/CycH/MNAT1),CDK2/CDK7: Selectivity of CDK7 inhibition over CDK2 inhibition (CDK2),IC50 (CDK2),CDK5/CDK7: Selectivity of CDK7 inhibition over CDK5 inhibition (CDK5),IC50 (CDK5),CDK1/CDK7: Selectivity of CDK7 inhibition over CDK1 inhibition (CDK1),IC50 (CDK1),"Compound concentration that caused 50% CDK7 protein degradation in A2780 cells (DC50, nM) (CDK7 protein)",DC50 (CDK7 protein),SMILES
≤ 100 nM,A (A indicates [fold] > 500),> 1000 nM,A (A indicates [fold] > 500),> 1000 nM,A (A indicates [fold] > 500),> 1000 nM,,≤ 100 nM,Cc1ncsc1-c1ccc(CNC(=O)[C@@H]2C[C@@H](O)CN2C(=O)[C@@H](NC(=O)C2(F)CC2)C(C)(C)C)c(OCCOCCOCCNc2ccc3c(-c4ccccc4CNc4nc(O[C@@H]5CCCNC5)nc5c(C(C)C)cnn45)nccc3c2)c1 [Compound 11]
≤ 100 nM,A (A indicates [fold] > 500),> 1000 nM,A (A indicates [fold] > 500),> 1000 nM,A (A indicates [fold] > 500),> 1000 nM,,> 1000 nM,CNCC(=O)N[C@H](C(=O)N1C[C@@H](Oc2cccc(OCCOCCOCCNc3ccc4c(-c5ccccc5CNc5nc(O[C@@H]6CCCNC6)nc6c(C(C)C)cnn56)nccc4c3)c2)C[C@H]1C(=O)N[C@@H]1CCCc2ccccc21)C1CCCCC1 [Compound 12]
≤ 100 nM,A (A indicates [fold] > 500),> 1000 nM,A (A indicates [fold] > 500),> 1000 nM,A (A indicates [fold] > 500),> 1000 nM,B or A,100 to 1000 nM,CC(C)c1cnn2c(NCc3ccccc3-c3nccc4cc(NCCOCCOCCNC(=O)CNc5cccc6c5CN(C5CCC(=O)NC5=O)C6=O)ccc34)nc(O[C@@H]3CCCNC3)nc12 (stereo partly drawn) [Compound 14]
≤ 100 nM,A (A indicates [fold] > 500),> 1000 nM,A (A indicates [fold] > 500),> 1000 nM,A (A indicates [fold] > 500),> 1000 nM,,≤ 100 nM,Cc1ncsc1-c1ccc(CNC(=O)[C@@H]2C[C@@H](O)CN2C(=O)[C@@H](NC(=O)CCOCCOCCNc2ccc3c(-c4ccccc4CNc4nc(O[C@@H]5CCCNC5)nc5c(C(C)C)cnn45)nccc3c2)C(C)(C)C)cc1 [Compound 15]
≤ 100 nM,A (A indicates [fold] > 500),> 1000 nM,A (A indicates [fold] > 500),> 1000 nM,A (A indicates [fold] > 500),> 1000 nM,,≤ 100 nM,Cc1ncsc1-c1ccc([C@H](C)NC(=O)[C@@H]2C[C@@H](O)CN2C(=O)[C@@H](NC(=O)CCOCCOCCNc2ccc3c(-c4ccccc4CNc4nc(O[C@@H]5CCCNC5)nc5c(C(C)C)cnn45)nccc3c2)C(C)(C)C)cc1 [Compound 17]
≤ 100 nM,A (A indicates [fold] > 500),> 1000 nM,A (A indicates [fold] > 500),> 1000 nM,A (A indicates [fold] > 500),> 1000 nM,,≤ 100 nM,Cc1ncsc1-c1ccc(CNC(=O)[C@@H]2C[C@@H](O)CN2C(=O)[C@@H](NC(=O)C2(F)CC2)C(C)(C)C)c(OCCOCCOCCOCCNc2ccc3c(-c4ccccc4CNc4nc(O[C@@H]5CCCNC5)nc5c(C(C)C)cnn45)nccc3c2)c1 [Compound 19]
≤ 100 nM,A (A indicates [fold] > 500),> 1000 nM,A (A indicates [fold] > 500),> 1000 nM,A (A indicates [fold] > 500),> 1000 nM,,≤ 100 nM,Cc1ncsc1-c1ccc(CNC(=O)[C@@H]2C[C@@H](O)CN2C(=O)[C@@H](NC(=O)C2(F)CC2)C(C)(C)C)c(OCCOCCOCCOCCOCCNc2ccc3c(-c4ccccc4CNc4nc(O[C@@H]5CCCNC5)nc5c(C(C)C)cnn45)nccc3c2)c1 [Compound 21]

# The remaining lines, values behind:
SMILES,IC50 (CDK7/CycH/MNAT1),CDK2/CDK7: Selectivity of CDK7 inhibition over CDK2 inhibition (CDK2),IC50 (CDK2),CDK5/CDK7: Selectivity of CDK7 inhibition over CDK5 inhibition (CDK5),IC50 (CDK5),CDK1/CDK7: Selectivity of CDK7 inhibition over CDK1 inhibition (CDK1),IC50 (CDK1),"Compound concentration that caused 50% CDK7 protein degradation in A2780 cells (DC50, nM) (CDK7 protein)",DC50 (CDK7 protein)
CC(C)c1cnn2c(NCc3ccccc3-c3nccc4cc(NC(=O)COCCOCCOCCNC(=O)CNc5cccc6c5C(=O)N(C5CCC(=O)NC5=O)C6=O)ccc34)nc(O[C@@H]3CCCNC3)nc12 (stereo partly drawn) [Compound 9],≤ 100 nM,A (A indicates [fold] > 500),> 1000 nM,A (A indicates [fold] > 500),> 1000 nM,A (A indicates [fold] > 500),> 1000 nM,B or A,
CC(C)c1cnn2c(NCc3ccccc3-c3nccc4cc(NCCOCCOCCNC(=O)CNc5ccc6c(c5)C(=O)N(C5CCC(=O)NC5=O)C6=O)ccc34)nc(O[C@@H]3CCCNC3)nc12 (stereo partly drawn) [Compound 10],≤ 100 nM,A (A indicates [fold] > 500),> 1000 nM,A (A indicates [fold] > 500),> 1000 nM,A (A indicates [fold] > 500),> 1000 nM,B or A,100 to 1000 nM
CC(C)C[C@H](NC(=O)[C@@H](O)[C@H](N)Cc1ccccc1)C(=O)NCCOCCOCCNc1ccc2c(-c3ccccc3CNc3nc(O[C@@H]4CCCNC4)nc4c(C(C)C)cnn34)nccc2c1 [Compound 13],≤ 100 nM,A (A indicates [fold] > 500),> 1000 nM,A (A indicates [fold] > 500),> 1000 nM,A (A indicates [fold] > 500),> 1000 nM,,> 1000 nM
CC(C)c1cnn2c(NCc3ccccc3-c3nccc4cc(NCCOCCOCCNC(=O)CNc5ccc6c(c5)CN(C5CCC(=O)NC5=O)C6=O)ccc34)nc(O[C@@H]3CCCNC3)nc12 (stereo partly drawn) [Compound 16],≤ 100 nM,A (A indicates [fold] > 500),> 1000 nM,A (A indicates [fold] > 500),> 1000 nM,A (A indicates [fold] > 500),> 1000 nM,B or A,100 to 1000 nM
Cc1ncsc1-c1ccc(CNC(=O)[C@@H]2C[C@@H](O)CN2C(=O)[C@@H](NC(=O)C2(F)CC2)C(C)(C)C)c(OCCOCCNc2ccc3c(-c4ccccc4CNc4nc(O[C@@H]5CCCNC5)nc5c(C(C)C)cnn45)nccc3c2)c1 [Compound 20],≤ 100 nM,A (A indicates [fold] > 500),> 1000 nM,A (A indicates [fold] > 500),> 1000 nM,A (A indicates [fold] > 500),> 1000 nM,,≤ 100 nM

# — patent US20240343732A1, “COMPOUNDS FOR DEGRADATION OF CYCLIN-DEPENDENT KINASE 7(CDK7)” (QURIENT CO., LTD., priority 2021, published 2024)
